Patent US20100105749A1, “CHEMICAL COMPOUNDS, PHARMACEUTICAL COMPOSITIONS AND METHODS” (SMITHKLINE BEECHAM CORPORATION, priority 2007, published 2010)

System: Cynomolgus monkeys
Test: Bilirubin Monkey Test
Format: in vivo
Protocol: The product of Example 4 was formulated in 5% DMSO: 2% Tween 80: 10% SBE-CD with 1 molar equiv of HCl at 6 mg/ml and dosed at 30 mg/kg. Cynomolgus monkeys (each group n=6) had baseline blood drawn at day 0 at 9 am. On day 1, the monkeys were fed their morning meal at 7 am. After 1 hour, all left over food was removed and fast was begun. There was twice a day oral dosing of compound or vehicle on day 1 and day 2 of the fast, on day 3 there was an oral dose the morning (8 am) before the blood draw (9 am). Food was returned to the monkeys at this point. Oral dosing occurred at approximately 8:00 a.m. and 4:00 p.m. administered by oral gavage. Serum chemistries were screened on baseline and end of treatment blood draws. Significant changes were detected in bilirubin levels. Bilirubin increased in the fasted state, as expected (total, direct, and indirect bilirubin changed 2.0-, 2.4- and 1.92-fold, respectively over baseline).

[1] = fasted cynomolgus monkeys, 30 mg/kg oral gavage twice a day, end of treatment (day 3) vs baseline
[2] = serum, 48 hr fast, 30 mg/kg oral twice a day, n=6

SMILES: O=C(O)c1ccc2nc(NC(c3ccccc3)c3ccccc3)n(CCc3ccccc3)c2c1.O=S(=O)(O)O [Example 4, 2-[(diphenylmethyl)amino]-1-(2-phenylethyl)-1H-benzimidazole-6-carboxylic acid sulfate]
- direct bilirubin change over baseline [1]: 4.71 fold
- indirect bilirubin change over baseline [1]: 3.53 fold
- total bilirubin change over baseline [1]: 3.74 fold
- DBIL (direct bilirubin) [2]: 0.165 ± 0.01 mg/dL
- IBIL (indirect bilirubin) [2]: 0.565 ± .036 mg/dL
- TBIL (total bilirubin) [2]: 0.73 ± 0.04 mg/dL
